This experiment has as its target EGFR (UniProt P00533).

Converted amounts (≈) assume the structure as drawn. “And” between values parts separate entries of the source, which are not always exact repeats. Equal values may be shown once.

EGFR, sequence (P00533 whole entry, looked up): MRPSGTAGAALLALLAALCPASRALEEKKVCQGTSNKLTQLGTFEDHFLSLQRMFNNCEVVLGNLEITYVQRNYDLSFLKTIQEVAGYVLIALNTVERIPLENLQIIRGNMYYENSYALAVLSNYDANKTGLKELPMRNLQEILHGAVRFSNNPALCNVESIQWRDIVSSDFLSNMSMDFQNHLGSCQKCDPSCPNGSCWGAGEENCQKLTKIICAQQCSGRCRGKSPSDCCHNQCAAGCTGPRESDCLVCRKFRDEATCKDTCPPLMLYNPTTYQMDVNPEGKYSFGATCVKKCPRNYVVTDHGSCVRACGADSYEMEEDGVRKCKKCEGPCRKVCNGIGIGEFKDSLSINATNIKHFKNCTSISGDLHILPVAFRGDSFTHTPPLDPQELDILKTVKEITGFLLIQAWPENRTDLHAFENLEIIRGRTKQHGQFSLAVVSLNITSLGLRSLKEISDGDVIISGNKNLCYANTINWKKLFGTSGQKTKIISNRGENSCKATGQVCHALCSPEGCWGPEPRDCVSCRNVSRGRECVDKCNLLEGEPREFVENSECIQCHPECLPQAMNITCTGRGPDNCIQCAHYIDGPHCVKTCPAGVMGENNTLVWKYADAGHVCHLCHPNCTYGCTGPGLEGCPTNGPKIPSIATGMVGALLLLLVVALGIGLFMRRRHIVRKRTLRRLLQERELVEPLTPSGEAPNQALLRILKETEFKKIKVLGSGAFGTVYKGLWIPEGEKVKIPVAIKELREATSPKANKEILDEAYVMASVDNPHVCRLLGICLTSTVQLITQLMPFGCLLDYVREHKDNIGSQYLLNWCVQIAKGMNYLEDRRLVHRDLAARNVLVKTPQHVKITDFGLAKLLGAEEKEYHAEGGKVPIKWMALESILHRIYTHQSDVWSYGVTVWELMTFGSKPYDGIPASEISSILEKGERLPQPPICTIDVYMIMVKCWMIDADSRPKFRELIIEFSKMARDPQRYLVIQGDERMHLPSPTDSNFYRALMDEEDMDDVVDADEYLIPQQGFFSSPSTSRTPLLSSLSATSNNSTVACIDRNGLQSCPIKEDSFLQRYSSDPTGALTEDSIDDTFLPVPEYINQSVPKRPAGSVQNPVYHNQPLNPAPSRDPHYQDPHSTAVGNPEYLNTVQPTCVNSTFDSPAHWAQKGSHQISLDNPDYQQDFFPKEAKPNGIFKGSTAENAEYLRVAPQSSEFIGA

`CC(C)Nc1ncccc1-c1ncnc(Nc2cccc(CC(=O)O)c2)n1` registered an IC50 greater than 4.5 µg/mL.
The figure for `COc1ccc(Nc2ncnc(NCC(O)c3ccccc3)n2)cc1OC` (stereo not given) is 3.5 to 4.5 µg/mL (≈ 9.53 to 12.2 µM).
In turn, `COc1cc(Nc2ncnc(Nc3cc(-c4ccc(Cl)cc4)n[nH]3)n2)cc(OC)c1OC` gave an IC50 of 2.4 to 3.5 µg/mL (≈ 5.29 to 7.71 µM).
Under `COc1cc(Nc2ncnc(-n3ccnc3)n2)cc(OC)c1OC` stands greater than 4.5 µg/mL; under `COc1ccc(Nc2ncnc(Nc3ccc4c(c3)C(=O)N(C)C4=O)n2)cc1OC`, greater than 4.5 µg/mL; under `O=c1[nH]c2ccccc2n1-c1ncnc(Nc2ccc3[nH]ncc3c2)n1`, greater than 4.5 µg/mL.
`COc1cc(Nc2ncnc(-n3cc(C#N)c4ccccc43)n2)cc(OC)c1OC` yielded an IC50 greater than 4.5 µg/mL.
Under `COc1cc(Nc2ncnc(Nc3ccccc3F)n2)cc(OC)c1OC` stands less than 0.4 µg/mL; under `COc1cc(Nc2ncnc(Nc3ccc(Cl)cc3F)n2)cc(OC)c1OC`, less than 0.4 µg/mL.
Under `Fc1ccc(CNc2ncccc2-c2ncnc(Nc3ccc(N4CCOCC4)cc3)n2)cc1` stands greater than 4.5 µg/mL; under `O=c1[nH]c2ccccc2n1-c1ncnc(Nc2ccc(NS(=O)(=O)c3ccc([N+](=O)[O-])cc3)cc2)n1`, 0.4 to 2.4 µg/mL (≈ 0.793 to 4.76 µM).
Take `COc1cc(Nc2ncnc(Nc3ccc(O)cc3C)n2)cc(OC)c1OC`: the IC50 was 2.4 to 3.5 µg/mL (≈ 6.26 to 9.13 µM).
As to `COc1cc(Nc2ncnc(-c3ccc(NCCCO)nc3)n2)cc(OC)c1OC`, the IC50 is greater than 4.5 µg/mL.
Under `CCC(Nc1nc2ccccc2n1-c1ncnc(Nc2cc(OC)c(OC)c(OC)c2)n1)c1ccccc1` (stereo not given) stands 0.4 to 2.4 µg/mL (≈ 0.782 to 4.69 µM); under `COc1cc(Nc2ncnc(-c3cccnc3Nc3cccc(C(F)(F)F)c3)n2)cc(OC)c1OC`, greater than 4.5 µg/mL; under `COc1cc(Nc2ncnc(-n3c(NC4c5ccccc5CC4O)nc4ccccc43)n2)cc(OC)c1OC` (stereo not given), greater than 4.5 µg/mL.
The molecule `COc1cc(Nc2ncnc(-n3ccc4ccc(Cl)cc43)n2)cc(OC)c1OC` showed an IC50 of 3.5 to 4.5 µg/mL (≈ 8.5 to 10.9 µM).
The figure for `Fc1ccc(CNc2ncccc2-c2ncnc(Nc3cccc(Cn4ccnc4)c3)n2)cc1` is 0.4 to 2.4 µg/mL (≈ 0.884 to 5.3 µM).
The figure for `COc1cc(Nc2ncnc(N3CCc4ccc([N+](=O)[O-])cc43)n2)cc(OC)c1OC` is greater than 4.5 µg/mL; for `COc1cc(Nc2ncnc(-n3c(NC(C)(C)c4ccccc4)nc4ccccc43)n2)cc(OC)c1OC` it is greater than 4.5 µg/mL; for `COc1cc(Nc2ncnc(NN3CCCC3)n2)cc(OC)c1OC` it is greater than 4.5 µg/mL.
Under `CN(c1cccc(Cl)c1)c1ncnc(Nc2cccc(CNC(=O)O[C@@H]3CCOC3)c2)n1` stands less than 0.4 µg/mL; under `COc1cc(Nc2ncnc(-c3c(O)[nH]c4ccccc34)n2)cc(OC)c1OC`, greater than 4.5 µg/mL; under `CCN(CC)CCOc1cc(Nc2ncnc(-n3c(N)nc4ccccc43)n2)ccc1OC`, greater than 4.5 µg/mL.
Regarding `COc1cc(Nc2ncnc(-n3c(NCCc4cccnc4)nc4ccccc43)n2)cc(OC)c1OC`, the IC50 was greater than 4.5 µg/mL.
On to `NC(=O)c1ccc(Nc2ncnc(Nc3cc(-c4ccco4)n[nH]3)n2)cc1`, for which the IC50 was 2.4 to 3.5 µg/mL (≈ 6.62 to 9.66 µM).
The figure for `CCOC(=O)CNc1ncnc(N2CCCc3cc(C)ccc32)n1` is greater than 4.5 µg/mL; for `COc1cc(Nc2ncnc(Nc3ccc4ccccc4c3)n2)cc(OC)c1OC` it is 0.4 to 2.4 µg/mL (≈ 0.991 to 5.95 µM).
The figure for `COc1cc(Nc2ncnc(-n3ccc4c(OC)cccc43)n2)cc(OC)c1OC` is greater than 4.5 µg/mL.
Under `CCOc1cccc(Nc2ncnc(Nc3cc(-c4ccc(C(=O)OC)cc4)n[nH]3)n2)c1` stands greater than 4.5 µg/mL.
Consider `COc1cc(C)c(Nc2ncnc(-n3c(N)nc4ccccc43)n2)cc1OC`, for which the IC50 was greater than 4.5 µg/mL.
In turn, `NC(=O)c1ccc(Nc2ncnc(-n3c(=O)[nH]c4ccccc43)n2)cc1` displayed an IC50 greater than 4.5 µg/mL.
The figure for `COc1cc(Nc2ncnc(Nc3cccc4ccccc34)n2)cc(OC)c1OC` is less than 0.4 µg/mL; for `COc1cc(Nc2ncnc(-n3c(Nc4cccc5cccnc45)nc4ccccc43)n2)cc(OC)c1OC` it is greater than 4.5 µg/mL; for `NC(=O)c1ccc(Nc2ncnc(-n3c(N)nc4ccccc43)n2)cc1` it is 2.4 to 3.5 µg/mL (≈ 6.93 to 10.1 µM).
The figure for `CC(C)(C)OC(=O)NCc1cccc(Nc2ncnc(Nc3cc(C(C)(C)C)n[nH]3)n2)c1` is greater than 4.5 µg/mL.
Molecule `COc1cc(Nc2ncnc(-n3c(N)nc4ccccc43)n2)cc(OC)c1OCCN1CCOCC1` showed an IC50 greater than 4.5 µg/mL.
The figure for `COc1ccc(Nc2ncnc(-c3ccccc3)n2)cc1` is greater than 4.5 µg/mL; for `Cc1ccc2c(c1)CCCN2c1ncnc(NCCc2cccnc2)n1` it is greater than 4.5 µg/mL.
`COc1cc(Nc2ncnc(-n3c(NCc4cccc(C)c4)nc4ccccc43)n2)cc(OC)c1OC` registered an IC50 greater than 4.5 µg/mL.
Turning to `Cc1cccc(Nc2ncnc(N(C)c3cccc(Br)c3)n2)c1`, the IC50 is less than 0.4 µg/mL.
The figure for `COc1cc(Nc2ncnc(-c3ccc(C)cc3)n2)cc(OC)c1OC` is greater than 4.5 µg/mL.
The figure for `COc1cc(Nc2ncnc(-n3c(Nc4ccccc4C(C)C)nc4ccccc43)n2)cc(OC)c1OC` is greater than 4.5 µg/mL.
On to `NC(=O)[C@H](CO)Nc1ncnc(-n2c(=O)[nH]c3ccccc32)n1`, for which the IC50 was greater than 4.5 µg/mL.
As to `Clc1ncnc(Nc2cc(-c3ccccc3)n[nH]2)n1`, the IC50 is greater than 4.5 µg/mL.
`c1ccc(CNc2ncccc2-c2ncnc(Nc3cccc(Cn4ccnn4)c3)n2)cc1` gave an IC50 of 0.4 to 2.4 µg/mL (≈ 0.918 to 5.51 µM).
The molecule `O=c1[nH]c2ccccc2n1-c1ncnc(Nc2ccccn2)n1` came in with an IC50 greater than 4.5 µg/mL.
In turn, `O=c1[nH]c2ccccc2n1-c1ncnc(Nc2ccccc2[N+](=O)[O-])n1` returned a 50% inhibitory concentration (IC50) greater than 4.5 µg/mL.
Under `COc1cc(Nc2ncnc(-c3cccnc3NCc3ccccn3)n2)cc(OC)c1OC` stands greater than 4.5 µg/mL; under `NC(=O)c1ccc(Nc2ncnc(-c3cccnc3NCc3ccccc3)n2)cc1`, 0.4 to 2.4 µg/mL (≈ 1.01 to 6.04 µM); under `COc1ccc(Nc2ncnc(NCCCN3CCCCC3C)n2)cc1OC` (stereo not given), greater than 4.5 µg/mL.
In turn, `COc1ccc(Nc2ncnc(Nc3ccc(OC)c(OC)c3)n2)cc1OC` showed an IC50 greater than 4.5 µg/mL.
Under `CN(c1cccc(Cl)c1)c1ncnc(Cl)n1` stands greater than 4.5 µg/mL.
Molecule `COc1ccc(Nc2ncnc(Nc3cccc(-c4ccnc(C)n4)c3)n2)cc1OC` registered an IC50 greater than 4.5 µg/mL.
`COc1ccc(Nc2ncnc(N(C)C3CCCCC3)n2)cc1OC` displayed an IC50 of less than 0.4 µg/mL.
Turning to `COc1cc(Nc2ncnc(Nc3cccc(CC(=O)O)c3)n2)cc(OC)c1OC`, the IC50 was less than 0.4 µg/mL.
Under `O=c1[nH]c2ccccc2n1-c1ncnc(Nc2ncccn2)n1` stands greater than 4.5 µg/mL; under `COc1cc(Nc2ncnc(Nc3cc(OC)c(OC)c(OC)c3)n2)ccc1OCCN1CCOCC1`, 0.4 to 2.4 µg/mL (≈ 0.78 to 4.68 µM).
Under `COc1cc(Nc2ncnc(Nc3ccc(-c4ccccc4)cc3)n2)cc(OC)c1OC` stands 3.5 to 4.5 µg/mL (≈ 8.15 to 10.5 µM); under `COc1cc(Nc2ncnc(Nc3cccc(Br)c3)n2)cc(OC)c1OC`, less than 0.4 µg/mL.
In turn, `COc1cc(Nc2ncnc(-n3ccc4cccnc43)n2)cc(OC)c1OC` had an IC50 greater than 4.5 µg/mL.
Under `CN(c1cccc(Cl)c1)c1ncnc(Nc2cccc(Br)c2)n1` stands less than 0.4 µg/mL; under `COc1cc(Nc2ncnc(-n3c(NCC(C)C)nc4ccccc43)n2)cc(OC)c1OC`, greater than 4.5 µg/mL.
Under `Brc1ccc(Nc2ncnc(-n3cccc3)n2)cc1` stands greater than 4.5 µg/mL.
The figure for `COc1cc(Nc2ncnc(Nc3ccc4[nH]ccc4c3)n2)cc(OC)c1OC` is less than 0.4 µg/mL; for `CC(C)(C)c1cc(Nc2ncnc(Nc3ccc(CO)cc3)n2)[nH]n1` it is 0.4 to 2.4 µg/mL (≈ 1.18 to 7.07 µM).
Turning to `Cc1ccc2c(c1)CCCN2c1ncnc(NCc2ccc(C(=O)O)cc2)n1`, the IC50 was greater than 4.5 µg/mL.
The figure for `CC(=O)NS(=O)(=O)c1ccc(Nc2ncnc(N(C)c3cccc(Cl)c3)n2)cc1` is less than 0.4 µg/mL; for `NC(=O)Cc1cccc(Nc2ncnc(-n3c(NCc4ccccc4)nc4ccccc43)n2)c1` it is less than 0.4 µg/mL; for `COc1ncnc(Nc2cc(OC)c(OC)c(OC)c2)n1` it is greater than 4.5 µg/mL.
With `COc1cc(Nc2ncnc(N3CCCC4CCCCC43)n2)cc(OC)c1OC` (stereo not given), the IC50 was less than 0.4 µg/mL.
The figure for `COc1cc(Nc2ncnc(-n3c(NCc4ccccc4C)nc4ccccc43)n2)cc(OC)c1OC` is greater than 4.5 µg/mL; for `COc1cc(Nc2ncnc(Nc3ccccc3)n2)cc(OC)c1OC` it is 0.4 to 2.4 µg/mL (≈ 1.13 to 6.79 µM); for `COc1ccc(Nc2ncnc(N(C)c3ccccc3Cl)n2)cc1OC` it is less than 0.4 µg/mL.
The molecule `COc1ccc(CCNc2ncnc(Nc3cc(-c4ccco4)[nH]n3)n2)cc1OC` came in with a 50% inhibitory concentration (IC50) greater than 4.5 µg/mL.
Turning to `COc1cc(Nc2ncnc(-c3cccc4ccccc34)n2)cc(OC)c1OC`, the IC50 is greater than 4.5 µg/mL.
For the molecule `FC(F)(F)c1ccc(Cl)c(Nc2ncnc(-n3cccc3)n2)c1`, the IC50 was greater than 4.5 µg/mL.
Under `OCc1cccc(Nc2ncnc(-c3cccnc3Nc3ccccc3)n2)c1` stands 0.4 to 2.4 µg/mL (≈ 1.08 to 6.48 µM); under `COc1ccc(Nc2ncnc(N(C)c3ccc(F)cc3F)n2)cc1OC`, less than 0.4 µg/mL.
The figure for `COc1ccc2c(c1)c(CCN(C)C)cn2-c1ncnc(Nc2cc(OC)c(OC)c(OC)c2)n1` is greater than 4.5 µg/mL.
In turn, `COc1ccc2c(c1)c(CCNC(C)=O)cn2-c1ncnc(Nc2cc(OC)c(OC)c(OC)c2)n1` displayed an IC50 greater than 4.5 µg/mL.
Molecule `COc1cc(Nc2ncnc(-c3cccnc3Nc3ccccc3C)n2)cc(OC)c1OC` displayed an IC50 greater than 4.5 µg/mL.
Molecule `COc1cc(Nc2ncnc(-n3cc(CCO)c4ccccc43)n2)cc(OC)c1OC` showed an IC50 greater than 4.5 µg/mL.
In turn, `COc1cc(Nc2ncnc(-n3c(NCc4ccccc4Cl)nc4ccccc43)n2)cc(OC)c1OC` had a 50% inhibitory concentration (IC50) greater than 4.5 µg/mL.
Turning to `COc1cc(Nc2ncnc(-n3c(NCc4ncc[nH]4)nc4ccccc43)n2)cc(OC)c1OC`, the IC50 was greater than 4.5 µg/mL.
Under `Fc1ccc(Nc2ncnc(Cl)n2)cc1Cl` stands greater than 4.5 µg/mL; under `COc1cc(Nc2ncnc(-c3cccnc3CCN)n2)cc(OC)c1OC`, greater than 4.5 µg/mL; under `Clc1ncnc(Nc2ccc(OCc3ccccc3)cc2)n1`, greater than 4.5 µg/mL.
Under `Cc1ccc2c(c1)CCCN2c1ncnc(Nc2cccc(Cc3nnn[nH]3)c2)n1` stands less than 0.4 µg/mL.
The figure for `COc1cc(Nc2ncnc(Nc3ccc(NC(=O)OC(C)(C)C)cc3)n2)cc(OC)c1OC` is greater than 4.5 µg/mL; for `COc1cc(Nc2ncnc(N[C@@H](CO)c3ccccc3)n2)cc(OC)c1OC` it is greater than 4.5 µg/mL.
Take `COc1cc(Nc2ncnc(Nc3cc(C)nn3C)n2)cc(OC)c1OC`: the IC50 is 3.5 to 4.5 µg/mL and > 4.5 µg/mL.
The figure for `COc1cccc(Nc2ncnc(Nc3ccc(OCc4ccccc4)cc3)n2)c1` is 0.4 to 2.4 µg/mL (≈ 1 to 6.01 µM); for `COC(=O)c1ccc(-c2cc(Nc3ncnc(NCCc4c[nH]c5ccccc45)n3)[nH]n2)cc1` it is 0.4 to 2.4 µg/mL (≈ 0.88 to 5.28 µM).
For `CN(c1cccc(Cl)c1)c1ncnc(Nc2cc(-c3ccco3)[nH]n2)n1`, the IC50 was less than 0.4 µg/mL.

As usually defined, the IC50 is the concentration at which inhibition is half-maximal.

Values taken from the Kinase Knowledgebase extract (Sharma et al. 2016).
